Values of other authors as cited in US11071781B2, “Combination of local and systemic immunomodulative therapies for enhanced treatment of cancer” (Provectus Pharmatech, Inc., priority 2011, dated 2021).
Values joined by “and” are separate entries in the source; they are usually repeats but may differ in a detail not shown here. Equal entries are not always repeated. Where two headings read alike, the source gives them in different places.

How the values were obtained:
[1] = tested on: melanoma; conditions: for toxicity and side effects: patients
[2] = tested on: cancer cells; conditions: previous work, WO 02/05812
[3] = intralesional therapy, melanoma patients

For `N.N.[Cl][Pt][Cl]` [cisplatin, reference compound], the “objective response rate (ORR)” value [1, 3] is listed as 38% and 53%, the ORR ([1]; lesions having a median diameter of 3.0 cm) is listed as 44% and the ORR ([1]; lesions with a median diameter of 0.6 cm) is listed as 53%.

For `O=C1OC2(c3cc(I)c(O)c(I)c3Oc3c2cc(I)c(O)c3I)c2c(Cl)c(Cl)c(Cl)c(Cl)c21` [rose bengal, 4,5,6,7-tetrachloro-2′,4′,5′,7′-tetraiodofluorescein], the “uptake into cancer cells versus normal cells” value [2] is given as “preferential uptake into cancer cells but is essentially excluded from normal cells”.

For IFN-α, the “complete response (CR)” value [1, 3] is given as 31%, the “objective response rate (ORR)” value [1, 3] is given as 45% and the “partial response (PR)” value [1, 3] is given as 14%. For the same molecule, the “toxicity and side effects” value ([1]; intralesional therapy) was “significant toxicity and side effects”.

For bleomycin [reference compound], the “efficacy (in words)” value ([1]; single electrochemotherapy treatment, intralesional) is given as “Substantial efficacy”.

B1: IFN-γ: interferon-gamma, non-specific cytokine (protein, UniProt P01579 24-161, looked up)
Interferon gamma: QDPYVKEAENLKKYFNAGHSDVADNGTLFLGILKNWKEESDRKIMQSQIVSFYFKLFKNFKDDQSIQKSVETIKEDMNVKFFNSNKKKRDDFEKLTNYSVTDLNVQRKAIHELIQVMAELSPAAKTGKRKRSQMLFRG
In the case of B1, the “response to IL therapy (in words)” value ([1]; intralesional interferon) is given as “either no result or transient response” and the “toxicity and side effects” value ([1]; intralesional therapy) is given as “significant toxicity and side effects”.
